Results from paper PMC7394005, “Assessing the Selectivity of FXR, LXRs, CAR, and RORγ Pharmaceutical Ligands With Reporter Cell Lines” (Frontiers in Pharmacology, 2020).

Tests used:
human PXR [1] = biological target: T1, human PXR (Homo sapiens, UniProt O75469); assay: HG5LN PXR reporter cell line, agonist mode; format: cell-based; conditions: NE = No effect; for EC50: HG5LN PXR cells, tested alone, read-out: PXR EC50
T1 construct: The GAL4-NR chimeric cell lines provide uniform cellular model differing just in receptor LBDs; expressed in transfected cells; host or cells: HG5LN PXR (HeLa-derived; described in Delfosse et al., 2015)
T1 sequence (O75469 146-433 limits assumed): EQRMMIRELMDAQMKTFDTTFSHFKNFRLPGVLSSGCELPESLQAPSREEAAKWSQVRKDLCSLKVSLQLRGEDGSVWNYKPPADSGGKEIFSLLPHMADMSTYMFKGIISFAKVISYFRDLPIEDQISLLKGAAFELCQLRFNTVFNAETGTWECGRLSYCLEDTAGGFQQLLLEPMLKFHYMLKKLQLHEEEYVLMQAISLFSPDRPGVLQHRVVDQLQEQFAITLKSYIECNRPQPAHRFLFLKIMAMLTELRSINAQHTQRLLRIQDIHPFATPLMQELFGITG
Method: (§1) To characterize the specificity of chemicals for human FXR, LXRα, LXRβ, CAR and RORγ, we established in a similar manner HG5LN FXR, LXRα, LXRβ, CAR WT, CAR (APYLT) and RORγ reporter cell lines. […] These cells were stably transfected by pSG5-GAL4 (DBD)-NRs (LBD)-puromycin plasmid and selected in presence of 0.5 µg/ml puromycin. […] From each HG5LN NR cells, 5 to 10 clones were chosen for their ligand inducibility of luciferase expression. […] The most inducible clones were expanded and rechecked for inducibility and aliquots were frozen at different passages. One clone per receptor was maintained in culture and used for ligand screening. HG5LN cells were cultured in Dulbecco’s modified Eagle’s medium (DMEM): Nutrient Mixture F-12 (DMEM/F-12) containing phenol red and 1 g/l glucose and supplemented with 5% fetal bovine serum, 100 units/ml of penicillin, 100 µg/ml of streptomycin and 1 mg/ml geneticin, in 5% CO2 humidified atmosphere at 37°C. Stably transfected cell lines derived from HG5LN cells were cultured in the same culture medium supplemented with 0.5 µg/ml puromycin.
(§2) Individual reporter cell lines were seeded at a density of 40,000 cells per well in 96-well white opaque tissue culture plates (Greiner CellStar) in Dulbecco’s Modified Eagle Medium: Nutrient Mixture F-12 (DMEM/F-12) without phenol red and 1 g/l glucose and supplemented with 5% stripped fetal bovine serum, 100 units/ml of penicillin, 100 µg/ml of streptomycin (test medium). Chemicals to be tested were added 24h later, and cells were incubated at 37°C for 16h. Experiments were performed in quadruplicates. At the end of the incubation period, culture medium was replaced with test medium containing 0.3 mM luciferin solution. Luciferase activity was measured for 2s in intact living cells after 10 min stabilization using a Micro Beta Wallac luminometer (PerkinElmer). EC50 values were calculated using GraphPad Prism (GraphPad Software Inc).
(§3) Chemicals tested for agonism on FXR, LXRs, CAR (+ APYLT), PXR, and antagonism on CAR and RORγ were tested alone, without addition of any other ligand.
(§4) In the transactivation assay, each compound was tested at various concentrations in three independent experiments at least. For each experiment, tests were performed in quadruplicates for each concentration, and data are expressed by means values with standard deviations. Individual agonist dose–response curves, in the absence and presence of antagonist, were fitted using the sigmoid dose-response function of a graphics and statistics software program (GraphPad Prism, version 5.0). EC50 (effective concentration for half-maximal luciferase activity) and IC50 (half-maximal inhibitory concentration) values were calculated from equations used to fit the data in this graphic software. Transactivation data are presented as EC50 and IC50 values for each compound tested. To analyze significances, we compared individual compound treatments with controls using one-way analysis of variance (ANOVA) with the help of GraphPad Prism software.

human PXR [2] = biological target: T1, human PXR; assay: HG5LN PXR reporter cell line, antagonist mode in presence of SR12813; format: cell-based; conditions: read-out: PXR (SR12813 300 nM) IC50; in presence of SR12813 300 nM; NE = No effect
Method: as §1, §2, §3, §4

human CAR WT = biological target: T2, human CAR WT (Homo sapiens, UniProt Q14994); assay: HG5LN GAL4-CAR WT reporter cell line, inhibition of constitutive activity; format: cell-based; conditions: inhibition of constitutive activity, tested alone; NE = No effect
T2 construct: CAR (M76-S348); expressed in transfected cells; host or cells: HG5LN (HeLa cells carrying the (GAL4RE)5-βGlob-Luc-SVNeo reporter)
T2 sequence (Q14994 76-348 isoform Q14994-2): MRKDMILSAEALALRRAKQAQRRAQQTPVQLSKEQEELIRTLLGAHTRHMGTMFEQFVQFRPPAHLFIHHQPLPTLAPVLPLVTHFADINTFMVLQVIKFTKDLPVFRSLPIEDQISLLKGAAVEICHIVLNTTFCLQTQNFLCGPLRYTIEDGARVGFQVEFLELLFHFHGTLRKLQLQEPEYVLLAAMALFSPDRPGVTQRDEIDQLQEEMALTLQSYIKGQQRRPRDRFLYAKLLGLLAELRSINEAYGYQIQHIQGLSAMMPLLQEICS
Text: (§5) To construct GAL4-NR chimeras, individual LBDs of human FXR (R193-Q486), LXRα (A187-E447), LXRβ (G199-E461), CAR (M76-S348), and RORγ (S97-K518) were amplified by PCR with primers containing XhoI and SacI restriction sites (FXR), XhoI and BamHI (LXRs, CAR, RORγ) and inserted in pSG5-GAL4(DBD)-puromycin plasmid. To construct GAL4-CAR (+ APYLT) (M76-S353), the five amino acids APYLT were inserted by overlap extension PCR between amino acids P270 and D271 of CAR.
as §1, §2, §3, §4

human LXRβ [3] = biological target: T3, human LXRβ (Homo sapiens, UniProt P55055); assay: HG5LN GAL4-LXRβ reporter cell line, antagonist mode in presence of T0901317; format: cell-based; conditions: read-out: LXRβ (T0901317 100 nM) IC50; in presence of T0901317 100 nM; NE = No effect
T3 construct: LXRβ (G199-E461); expressed in transfected cells; host or cells: HG5LN (HeLa cells carrying the (GAL4RE)5-βGlob-Luc-SVNeo reporter)
T3 sequence (P55055 198-460 limits assumed): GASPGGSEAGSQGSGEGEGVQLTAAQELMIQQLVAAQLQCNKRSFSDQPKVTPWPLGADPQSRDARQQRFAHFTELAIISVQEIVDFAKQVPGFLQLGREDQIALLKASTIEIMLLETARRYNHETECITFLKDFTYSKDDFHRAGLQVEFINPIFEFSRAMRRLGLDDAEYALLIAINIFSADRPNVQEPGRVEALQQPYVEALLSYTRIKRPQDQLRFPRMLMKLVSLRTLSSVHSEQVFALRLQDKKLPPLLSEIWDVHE
Text: as §5, §1, §2, §3, §4

human CAR (+ APYLT) = biological target: T4, human CAR (+ APYLT) (Homo sapiens, UniProt Q14994, INS270APYLT); assay: HG5LN GAL4-CAR (+APYLT) reporter cell line, agonist mode; format: cell-based; conditions: HG5LN CAR + APYLT cells, tested alone; NE = No effect
T4 construct: CAR (M76-S348); expressed in transfected cells; host or cells: HG5LN (HeLa cells carrying the (GAL4RE)5-βGlob-Luc-SVNeo reporter)
T4 sequence (Q14994 47-324 isoform Q14994-6): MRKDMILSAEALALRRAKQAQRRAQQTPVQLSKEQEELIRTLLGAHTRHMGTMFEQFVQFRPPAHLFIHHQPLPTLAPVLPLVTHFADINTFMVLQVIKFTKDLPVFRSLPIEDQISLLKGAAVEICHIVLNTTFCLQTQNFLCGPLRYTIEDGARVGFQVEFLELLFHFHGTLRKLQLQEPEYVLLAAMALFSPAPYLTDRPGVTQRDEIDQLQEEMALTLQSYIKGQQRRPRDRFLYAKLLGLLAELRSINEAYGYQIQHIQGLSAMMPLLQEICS
Text: as §5, §1, §2, §3, §4

human LXRβ [4] = biological target: T3, human LXRβ; assay: HG5LN GAL4-LXRβ reporter cell line, agonist mode; format: cell-based; conditions: HG5LN GAL4-LXRβ cells, tested alone; NE = No effect; read-out: LXRβ EC50
Text: as §5, §1, §2, §3, §4

[5] = system: collagen-induced arthritis mouse model; parameters: method as in Xue et al., 2016; conditions: ref Xue et al., 2016; cited from earlier work
human LXRα [6] = biological target: T5, human LXRα (Homo sapiens, UniProt Q13133); assay: HG5LN GAL4-LXRα reporter cell line, antagonist mode in presence of T0901317; format: cell-based; conditions: read-out: LXRα (T0901317 20 nM) IC50; in presence of T0901317 20 nM; NE = No effect
T5 construct: LXRα (A187-E447); expressed in transfected cells; host or cells: HG5LN (HeLa cells carrying the (GAL4RE)5-βGlob-Luc-SVNeo reporter)
T5 sequence (Q13133 187-447): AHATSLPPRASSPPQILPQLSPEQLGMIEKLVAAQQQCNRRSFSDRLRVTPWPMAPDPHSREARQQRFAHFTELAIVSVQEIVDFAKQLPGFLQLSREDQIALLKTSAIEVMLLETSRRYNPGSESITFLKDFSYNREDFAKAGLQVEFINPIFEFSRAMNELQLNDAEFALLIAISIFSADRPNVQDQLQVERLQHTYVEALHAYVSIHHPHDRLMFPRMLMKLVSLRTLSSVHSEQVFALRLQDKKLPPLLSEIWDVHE
Text: as §5, §1, §2, §3, §4

human LXRα [7] = biological target: T5, human LXRα; assay: HG5LN GAL4-LXRα reporter cell line, agonist mode; format: cell-based; conditions: HG5LN GAL4-LXRα cells, tested alone; NE = No effect; read-out: LXRα EC50
Text: as §5, §1, §2, §3, §4

human RORγ [8] = biological target: T6, human RORγ (Homo sapiens, UniProt P51449); assay: HG5LN GAL4-RORγ reporter cell line, agonist mode in presence of SR2211; format: cell-based; conditions: read-out: RORγ (SR2211 1 mM) EC50; in presence of SR2211 1 mM; NE = No effect
T6 construct: RORγ (S97-K518); expressed in transfected cells; host or cells: HG5LN (HeLa cells carrying the (GAL4RE)5-βGlob-Luc-SVNeo reporter)
T6 sequence (P51449 97-518): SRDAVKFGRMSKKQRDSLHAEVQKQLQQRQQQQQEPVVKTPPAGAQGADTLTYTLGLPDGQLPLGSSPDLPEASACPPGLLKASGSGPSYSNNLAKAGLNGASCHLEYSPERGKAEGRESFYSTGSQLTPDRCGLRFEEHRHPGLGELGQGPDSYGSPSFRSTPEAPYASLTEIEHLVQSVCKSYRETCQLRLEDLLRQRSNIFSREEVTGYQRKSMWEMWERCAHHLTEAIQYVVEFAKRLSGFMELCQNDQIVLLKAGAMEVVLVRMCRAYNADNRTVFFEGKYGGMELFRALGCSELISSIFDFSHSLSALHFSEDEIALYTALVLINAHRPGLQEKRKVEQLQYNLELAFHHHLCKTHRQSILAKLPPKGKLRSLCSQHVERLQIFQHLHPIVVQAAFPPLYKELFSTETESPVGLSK
Text: as §5, §1, §2, §3, §4

human RORγ [9] = biological target: T6, human RORγ; assay: HG5LN GAL4-RORγ reporter cell line, inhibition of constitutive activity; format: cell-based; conditions: inhibition of constitutive activity, tested alone; NE = No effect
Text: as §5, §1, §2, §3, §4

Row | EC50 (human PXR [1]) | IC50 (human PXR [2]) | IC50 (human CAR WT) | IC50 (human LXRβ [3]) | EC50 (human CAR (+ APYLT)) | EC50 (human LXRβ [4]) | PXR % max act (human PXR [1]; maximal luciferase activity at 10^-5 M (10^-6 M *, 3 10^-6 M **), 100% = 3 µM SR12813, DMSO 19 ± 2) | IC50 (human LXRα [6]) | EC50 (human LXRα [7]) | EC50 (human RORγ [8]) | IC50 (human RORγ [9]) | SMILES | Inflammation [5]
1 | > 10 µM | > 10 µM | > 10 µM | > 10 µM | > 10 µM | > 10 µM |  |  |  |  |  | OC(c1ccc(-c2ccc(CN3CCN(Cc4ccncc4)CC3)cc2)c(F)c1)(C(F)(F)F)C(F)(F)F [SR2211] | inhibit inflammation
2 | 0.726 ± 0.056 µM |  |  | > 10 µM |  | > 10 µM | 80% | > 10 µM | > 10 µM | > 10 µM | > 10 µM | CCC(C)N(C)C(=O)c1cc2ccccc2c(-c2ccccc2Cl)n1 (stereo not drawn) [PK11195] | 
